Data published in patent publication US4057636A, “Antihypertensive pyridylguanidine compounds” (Leo Pharmaceutical Products Ltd. A/S, priority 1974, dated 1977).

Key:
[1] = system: conscious normotensive dogs; experiment: Hypotensive activity in conscious normotensive dogs; assay type: in vivo, dog (mongrel); settings: 0.1 mg/kg oral
Description: Hypotensive activity in conscious normotensive dogs
Mongrel dogs of both sexes, fasting 16 hours before the experiment were used. […] The compounds were orally administered in gelatine capsules.

[2] = system: conscious spontaneously hypertensive rats; experiment: Antihypertensive activity in conscious spontaneously hypertensive rats; assay type: in vivo, rat (spontaneously hypertensive Okamoto strain)
Description: Male albino rats, spontaneously hypertensive Okamoto strain, fasting 16 hours before the experiments were used. The conscious animals were restrained in a plastic cage and a cuff was secured around the tail. The cuff was connected with an electronic blood pressure recorder. The systolic blood pressure and the heart rate were measured before and 2, 4, 6, and 24 hours after the administration of compounds. The compounds were suspended or dissolved in carboxymethylcellulose 0.5%. […] There are also included, for comparison, the results obtained under the same experimental conditions with some known antihypertensive drugs, and the approximate oral LD50 in mice are stated.

[3] = in vivo; settings: mouse, po, p.o. (mice), approximate
[4] = system: nictitating membrane; experiment: Reduction of contraction of nictitating membrane, pre- and postganglionic stimulation, in cats; assay type: in vivo, cat; settings: for Nict. Membr. post % reduction: postganglionic stimulation (3 V, 1 msec, 5 secs); for Nict. Membr. pre % reduction: preganglionic stimulation (3 V, 1 msec, 40 Hz, 5 secs)
Description: (§1) Hypotensive action and various cardiovascular and autonomic responses in cats.
(§2) Cats of both sexes anaestetized with pentobarbital […]. were used. The left carotid artery was exposed and cannulated with polyethylene cannula connected through a Statham pressure transducer to a Grass Polygraph Recorder. […] The compound was administered dissolved in dilute HCl in a volume of 0.4 ml. […] Both procedures are known to produce pressor effects. […]

[5] = system: cats; experiment: Hypotensive action in anaesthetized cats (ΔBP, ΔHR); assay type: in vivo, cat
Description: as §1, §2

[6] = system: vasopressor response to norepinephrine; experiment: Reduction of vasopressor response to norepinephrine (NE) in cats; assay type: in vivo, cat; settings: 0.01 mg/kg i.v.; norepinephrine hydrochloride 1 meg/kg i.v.
Description: as §1, §2

[7] = system: normotensive anaesthetized rats; experiment: Hypotensive activity in normotensive anaesthetized rats; assay type: in vivo, rat (Sprague Dowley); settings: for Δ mean blood pressure: at time of peak effect
Description: Male albino Sprague Dowley strain rats were anaesthetized with pentobarbital and fastened to rat boards in a supine position. The left carotid artery was exposed and cannulated with polyethylene cannula connected through a Statham pressure transducer to a Grass Polygraph Recorder. […] The compound was dissolved in dilute HCl. […] Table 1 summarizes the effects on mean blood pressure at the time of peak effect.

[8] = system: common carotid artery occlusion pressor response; experiment: Reduction of pressor response to common carotid artery occlusion (CO) in cats; assay type: in vivo, cat; settings: 0.01 mg/kg i.v.; carotid artery occlusion 45 secs
Description: as §1, §2

[9] = system: blood pressure; settings: J. Med. Chem. Vol. 11, p. 811 (1968); cited from earlier work
[10] = 0.01 mg/kg i.v., line with NE/CO
[11] = 0.01 mg/kg i.v., line with nictitating membrane
[12] = 0.05 mg/kg i.v., line with nictitating membrane

SMILES: CCC(C)(C)NC(=NC#N)Nc1cccnc1 [P 1075, N"-cyano-N-tert-pentyl-N'-3-pyridylguanidine]
- BP ([1]; Dog I, 1 hour): 72 mm Hg
- HR ([1]; Dog I, 1 hour): 160 beats/minute
- BP ([1]; Dog I, 2 hours): 75 mm Hg
- HR ([1]; Dog I, 2 hours): 180 beats/minute
- BP ([1]; Dog I, 3 hours): 85 mm Hg
- HR ([1]; Dog I, 3 hours): 142 beats/minute
- BP ([1]; Dog I, 4 hours): 95 mm Hg
- HR ([1]; Dog I, 4 hours): 135 beats/minute
- BP ([1]; Dog II, 1 hour): 82 mm Hg
- HR ([1]; Dog II, 1 hour): 175 beats/minute
- BP ([1]; Dog II, 2 hours): 74 mm Hg
- HR ([1]; Dog II, 2 hours): 185 beats/minute
- BP ([1]; Dog II, 3 hours): 92 mm Hg
- HR ([1]; Dog II, 3 hours): 163 beats/minute
- BP ([1]; Dog II, 4 hours): 115 mm Hg
- HR ([1]; Dog II, 4 hours): 140 beats/minute
- BP ([1]; Dog III, 1 hour): 95 mm Hg
- HR ([1]; Dog III, 1 hour): 185 beats/minute
- BP ([1]; Dog III, 2 hours): 90 mm Hg
- HR ([1]; Dog III, 2 hours): 175 beats/minute
- BP ([1]; Dog III, 3 hours): 104 mm Hg
- HR ([1]; Dog III, 3 hours): 149 beats/minute
- BP ([1]; Dog III, 4 hours): 110 mm Hg
- HR ([1]; Dog III, 4 hours): 140 beats/minute
- BP ([2]; 0.05 mg/kg, 2 hours): 105 mm Hg
- HR ([2]; 0.05 mg/kg, 2 hours): 450 beats/minute
- BP ([2]; 0.05 mg/kg, 4 hours): 102 mm Hg
- HR ([2]; 0.05 mg/kg, 4 hours): 432 beats/minute
- BP ([2]; 0.05 mg/kg, 24 hours): 164 mm Hg
- HR ([2]; 0.05 mg/kg, 24 hours): 348 beats/minute
- LD50 [3]: 1000 mg/kg

SMILES: CC(C)(C)NC(=NC#N)Nc1cccnc1 [P 1060, N-tert-Butyl-N"-cyano-N'-3-pyridylcuanidine]
- Nict. Membr. post % reduction ([4]; 0.01 mg/kg i.v.): 12%
- Nict. Membr. pre % reduction ([4]; 0.01 mg/kg i.v.): 20%
- Nict. Membr. post % reduction ([4]; 0.05 mg/kg i.v.): 21%
- Nict. Membr. pre % reduction ([4]; 0.05 mg/kg i.v.): 12%
- ΔBP [5, 10]: 90 mm Hg
- ΔHR [5, 10]: 20 beats/min.
- ΔBP [5, 11]: 90 mm Hg
- ΔHR [5, 11]: 35 beats/min.
- ΔBP [5, 12]: 110 mm Hg
- ΔHR [5, 12]: 30 beats/min.
- NE % reduction [6]: 50%
- BP ([1]; Dog I, 1 hour): 75 mm Hg
- HR ([1]; Dog I, 1 hour): 152 beats/minute
- UV ([1]; Dog I, 1 hour): 2.3 mL
- BP ([1]; Dog I, 2 hours): 80 mm Hg
- HR ([1]; Dog I, 2 hours): 180 beats/minute
- UV ([1]; Dog I, 2 hours): 7.1 mL
- BP ([1]; Dog I, 3 hours): 90 mm Hg
- HR ([1]; Dog I, 3 hours): 152 beats/minute
- UV ([1]; Dog I, 3 hours): 11 mL
- BP ([1]; Dog I, 4 hours): 120 mm Hg
- HR ([1]; Dog I, 4 hours): 140 beats/minute
- UV ([1]; Dog I, 4 hours): 22 mL
- BP ([1]; Dog II, 1 hour): 100 mm Hg
- HR ([1]; Dog II, 1 hour): 112 beats/minute
- UV ([1]; Dog II, 1 hour): 8 mL
- BP ([1]; Dog II, 2 hours): 95 mm Hg
- HR ([1]; Dog II, 2 hours): 128 beats/minute
- UV ([1]; Dog II, 2 hours): 12.5 mL
- BP ([1]; Dog II, 3 hours): 95 mm Hg
- HR ([1]; Dog II, 3 hours): 104 beats/minute
- UV ([1]; Dog II, 3 hours): 22.5 mL
- BP ([1]; Dog II, 4 hours): 105 mm Hg
- HR ([1]; Dog II, 4 hours): 100 beats/minute
- UV ([1]; Dog II, 4 hours): 16 mL
- BP ([1]; Dog III, 1 hour): 65 mm Hg
- HR ([1]; Dog III, 1 hour): 172 beats/minute
- UV ([1]; Dog III, 1 hour): 22 mL
- BP ([1]; Dog III, 2 hours): 115 mm Hg
- HR ([1]; Dog III, 2 hours): 104 beats/minute
- UV ([1]; Dog III, 2 hours): 20 mL
- BP ([1]; Dog III, 3 hours): 110 mm Hg
- HR ([1]; Dog III, 3 hours): 92 beats/minute
- UV ([1]; Dog III, 3 hours): 12 mL
- BP ([1]; Dog III, 4 hours): 125 mm Hg
- HR ([1]; Dog III, 4 hours): 88 beats/minute
- UV ([1]; Dog III, 4 hours): 14 mL
- duration ([7]; 0.002 mg/kg i.v.): 3 min
- Δ mean blood pressure ([7]; 0.002 mg/kg i.v.): -70 mm Hg
- duration ([7]; 0.005 mg/kg i.v.): 12 min
- Δ mean blood pressure ([7]; 0.005 mg/kg i.v.): -70 mm Hg
- duration ([7]; 0.010 mg/kg i.v.): > 45 min
- Δ mean blood pressure ([7]; 0.010 mg/kg i.v.): -85 mm Hg
- BP ([2]; 0.01 mg/kg, 2 hours): 141 mm Hg
- HR ([2]; 0.01 mg/kg, 2 hours): 419 beats/minute
- BP ([2]; 0.01 mg/kg, 4 hours): 145 mm Hg
- HR ([2]; 0.01 mg/kg, 4 hours): 423 beats/minute
- BP ([2]; 0.01 mg/kg, 6 hours): 146 mm Hg
- HR ([2]; 0.01 mg/kg, 6 hours): 428 beats/minute
- BP ([2]; 0.01 mg/kg, 24 hours): 176 mm Hg
- HR ([2]; 0.01 mg/kg, 24 hours): 402 beats/minute
- BP ([2]; 0.05 mg/kg, 2 hours): 126 mm Hg
- HR ([2]; 0.05 mg/kg, 2 hours): 422 beats/minute
- BP ([2]; 0.05 mg/kg, 4 hours): 132 mm Hg
- HR ([2]; 0.05 mg/kg, 4 hours): 420 beats/minute
- BP ([2]; 0.05 mg/kg, 6 hours): 127 mm Hg
- HR ([2]; 0.05 mg/kg, 6 hours): 410 beats/minute
- BP ([2]; 0.05 mg/kg, 24 hours): 170 mm Hg
- HR ([2]; 0.05 mg/kg, 24 hours): 386 beats/minute
- BP ([2]; 0.1 mg/kg, 2 hours): 118 mm Hg
- HR ([2]; 0.1 mg/kg, 2 hours): 420 beats/minute
- BP ([2]; 0.1 mg/kg, 4 hours): < 100 mm Hg
- HR ([2]; 0.1 mg/kg, 4 hours): 426 beats/minute
- BP ([2]; 0.1 mg/kg, 6 hours): 114 mm Hg
- HR ([2]; 0.1 mg/kg, 6 hours): 422 beats/minute
- BP ([2]; 0.1 mg/kg, 24 hours): 170 mm Hg
- HR ([2]; 0.1 mg/kg, 24 hours): 408 beats/minute
- BP ([2]; 0.5 mg/kg, 2 hours): < 100 mm Hg
- BP ([2]; 0.5 mg/kg, 4 hours): < 100 mm Hg
- BP ([2]; 0.5 mg/kg, 6 hours): < 100 mm Hg
- BP ([2]; 0.5 mg/kg, 24 hours): 153 mm Hg
- HR ([2]; 0.5 mg/kg, 24 hours): 413 beats/minute
- BP ([2]; 1.0 mg/kg, 2 hours): < 100 mm Hg
- BP ([2]; 1.0 mg/kg, 4 hours): < 100 mm Hg
- BP ([2]; 1.0 mg/kg, 6 hours): < 100 mm Hg
- BP ([2]; 1.0 mg/kg, 24 hours): 126 mm Hg
- HR ([2]; 1.0 mg/kg, 24 hours): 405 beats/minute
- CO % reduction [8]: 100%

SMILES: CCC(C)(C)NC(=N)NC#N [Guancydine, N-cyano-N'-tert-pentylguanidine]
- hypotensive effect (literature) [9]: the most potent of the compounds of the above-mentioned literature
